Reference: patent US20210161783A1, “USE OF SPECIFIC BENZYLIDENE MALONATES FOR PROTECTING THE SKIN FROM CHEMICALLY INDUCED STRESS” (MERCK PATENT GMBH, priority 2018, published 2021)

Assays:
[1] = tested on: epidermis of living human skin explants; assay: Ex-vivo study on living human skin explants: histological investigation (Masson's trichrome staining); type: cell-based; details: for Epidermal morphological change compared with the untreated sample: explants treated with substance and the irritant, day 4, Masson staining
Method: (§1) An ex-vivo study was carried out on skin explants from a person […] (P1922-AB54). The explants are kept in a functioning state in a BEM culture medium (explants medium from BIO-EC) at 37° C. in a moist atmosphere containing 5% of CO2. 4 explants are used in each case in an experimental series of a substance, the control or the reference.
(§2) Compounds A and B to be investigated are employed in 0.5% solution in ethanol. The influence of ethanol on the explant is investigated in parallel (compound C=ethanol). The reference employed is the gel from DECLÉOR with the article number 56300 (gel D; decléor gelée hydratante anti-pollution), which is known for its protection of the skin against chemicals, heavy metals and diesel particles. The control used is an untreated sample which only comes into contact with the culture medium.
(§3) The explants are treated once daily for 4 days (day 0=D0, day 1=D1, day 2=D2 and day 3=D3) with the solutions to be tested containing compound A and B as well as compound C and gel D (2 μl per explant corresponding to 2 mg/cm^2). On D3, the solutions to be tested and the reference are treated 4 hours before application of the irritant.
(§4) On D3, the explants are treated with the irritant containing the metals/heavy metals and diesel particles, as described above, where a paper disc with a diameter of 9 mm is soaked with 30 μl of the irritant. The irritant acts on the respective explant for 24 hours.
On day 4 (D4), three explants are collected for each of the compounds to be investigated. Each explant is divided, and one part is frozen at −80° C., the second half is fixed in a buffered formol solution (formaldehyde solution). The fourth explant remains frozen at −80° C.
The explants fixed for 24 hours are dehydrogenated and impregnated in paraffin. Areas with a thickness of 5 μm are then cut and investigated under the microscope (for example Leica DMLB or Olympus BX43). Corresponding images are produced, using the Masson staining method (Masson's trichrome staining, Goldner variant), a standard colouring method in histology. […]

[2] = tested on: malonic dialdehyde (MDA) production in living human skin explants; assay: Ex-vivo study on living human skin explants: MDA investigation of the culture medium (TBAR, spectrofluorimetry); type: cell-based; details: for MDA concentration in the culture medium of the explant treated with substance and the irritant (average) / MDA concentration in the culture medium of the explant treated without irritant, but with substance (average): 0.5% solution in ethanol (gel D as such), day 4; for MDA concentration in the culture medium of the explant treated with substance and the irritant (average): 2 mg/cm^2 once daily D0-D3, irritant (metals/heavy metals + 0.1% diesel particles PM2.5) 24 h, irritant only 143.6, untreated 98.3; for Average MDA concentration in the presence of substance attributable to the irritant alone: difference with irritant minus without irritant, irritant alone without substance 45.3; for Lower MDA production (change) versus irritant only: explants with substance and irritant, compared with explant treated only with irritant; for MDA concentration in the culture medium of the explant treated without irritant, but with substance (average): no irritant, once daily D0-D3, untreated 98.3; for Hindrance of MDA production standardised to the amount of MDA released only by the irritant: standardised to MDA attributable to irritant alone (45.3 nmol/l)
Method: as §1, §2, §3, §4
The culture medium of the treated explants is investigated for the compound MDA. MDA stands for malonic dialdehyde (propanedial) and is a known marker for oxidative stress, as described above.
The culture medium of each investigated explant is mixed with a salt medium (HBBS Medium Hank's Balanced Salts) and a TBAR solution and heated in a water bath at 80° C. for 15 minutes. The TBAR solution contains thiobarbituric acid, hydrochloric acid and trichloroacetic acid. Many substances which are unrelated to the lipoperoxidation react with the thiobarbituric acid, for example glucose. After cooling, malonic dialdehyde (MDA) is extracted with butanol in a liquid/liquid extraction, and the then investigated by spectrofluorimetry (excitation 515 nm, emission: 550 nm). The MDA concentration indicated below is quoted in nmol/l.
1. For interpretation of the results, it is taken into account that the culture medium of the untreated explants (without irritant and without compounds A, B, C and gel D) also contains MDA on day 4.
For analysis of the results, this amount of MDA present on average in the untreated explants is therefore subtracted from the values obtained for the explant samples in order to determine the influence of MDA production owing to the irritant.

interleukin 8 = details: skin irritated by phorbol 12-myristate 13-acetate (PMA); cited from earlier work

SMILES | Epidermal morphological change compared with the untreated sample [1] | MDA concentration in the culture medium of the explant treated with substance and the irritant (average) [2] [nmol/L] | Average MDA concentration in the presence of substance attributable to the irritant alone [2] [nmol/L] | Lower MDA production (change) versus irritant only [2] [%] | MDA concentration in the culture medium of the explant treated without irritant, but with substance (average) [2] [nmol/L] | Hindrance of MDA production standardised to the amount of MDA released only by the irritant [2] [%] | Worsening of the condition of the epidermis (score of detectable changes) ([1]; explants with substance and irritant, compared with untreated control and with compound A plus irritant) | Excretion of cytokines, in particular interleukin 8 (interleukin 8)
CCCCC(CC)COC(=O)C(=Cc1cc(OC)c(O)c(OC)c1)C(=O)OCC(CC)CCCC (centres unmarked) [compound A, di(2-ethylhexyl) 3,5-dimethoxy-4-hydroxybenzylidenemalonate] | no epidermal change | 129.0 | 34.3 | 10 | 94.7 | 24 | – | –
COc1cc(C=C(C(=O)OC(C)C)C(=O)OC(C)C)ccc1O [compound B, diisopropyl 3-methoxy-4-hydroxybenzylidenemalonate] | an epidermal morphological change | 135.5 | 41.9 | 6 | 93.6 | 8 | about 55% | reduces the excretion of cytokines
